The values that follow come from US6696436B1, “B-homoestra-1,3,5(10)-trienes as modulators of tubulin polymerization” (The United States of America as represented by the …, priority 1999, dated 2004).

“Also recorded” adds a separate entry of the source.

For assay [1], the system named is T1, tubulin.
T1 construct: Activity in room temperature assay; other: no polymerization in the absence of drug; other: GTP-only system, critical concentrations
The following applies: favorable reaction conditions (room temperature); cited from earlier work.

Assay [2] has as its system T1, tubulin. Nature of the assay: Critical concentration of tubulin for assembly, turbidimetric (FIG. 6). Format: biochemical. As to conditions: for Critical concentration of tubulin, GTP-dependent, MAP-independent assembly: no MAPs. As to the method: FIG. 6 presents critical concentrations, obtained at 30° C., of tubulin with paclitaxel and compound 13. A: MAPs -and GTP-dependent assembly without drug and in the presence of 10 μM paclitaxel or 10 μM 13. B: GTP-dependent, MAP-independent assembly with 10 μM paclitaxel or 10 μM 13.
Measurement of the critical concentration with and without MAPs with paclitaxel, and again with 13, was therefore carried out to provide some idea of the comparative activity of these agents. The data are presented in FIG. 6, which yield critical concentrations, obtained at 30° C., of 1.4, 0.06, and 0.50 mg/ml for MAP-and GTP-dependent assembly without drug and in the presence of 10 μM paclitaxel or 10 μM 13, respectively, and 0.20 and 1.4 mg/ml for GTP-dependent, MAP-independent assembly with 10 μM paclitaxel or 10 μM 13. […] (A constant weight ratio of MAPs to tubulin of 1:3 was used, because the suboptimal concentration of MAPs caused greater differences in the critical concentrations obtained.) Reaction mixtures (0.25 ml) contained 0.1 M Mes (pH 6.9), 100 μM GTP, 4% dimethyl sulfoxide, the indicated tubulin concentration (with heat-treated MAPs in 1:3 weight ratio to the tubulin, panel A only), and either 10 μM paclitaxel (▴), 10 μM compound 13 (◯), or no drug (▾). Cuvette contents were equilibrated at 0°, drugs were added, temperature was jumped to 30° (about one min), and the turbidity changes after a 20 min incubation measured.

Assay [3] relates to tubulin polymer. As to conditions: cited from earlier work.
Assay [4] relates to T2, tubulin.
T2 construct: other: 1.0 M glutamate, 10 μM tubulin; Effect on tubulin polymerization / microtubule assembly
Briefly: Tubulin polymerization inhibition in vitro (turbidity at 350 nm). Format: biochemical. As for the experimental part: Microtubule assembly is followed in a temperature controlled recording spectrophotometer. For details and a discussion, see R. D'Amato et al., Proc Natl Acad Sci USA, 91:3964-3968 (1994).
A typical reaction mixture, which will have a final reaction volume of […], contains 1.0 M monosodium glutamate (pH 6.6), 1.0 mg/ml (10 μM) tubulin, 1.0 MM MgCl2, 4% (v/v) dimethylsulfoxide, and a compound to be tested at the desired concentration (typically 0.1 to 100 μM). The reaction mixtures are incubated for 15 min. at 37° C. and then chilled on ice. After addition of 10 μl 12.5 mM GTP (and, optionally, 0.33 mg/ml microtubule-associated proteins, or MAPs) to initiate polymerization, each reaction mixture is transferred to a cuvette at 0° C., and a baseline established. At time zero, the temperature controller of the spectrophotometer is set to a target temperature, typically between 25 and 37° C. Microtubule assembly is monitored by observing an increase in turbidity at 350 nm as the temperature of the reaction mixture rises to the set target temperature.
The results are presented in Table 1 as IC50 values (μM) for inhibition of tubulin polymerization. Alternatively, inhibition of microtubule assembly can be detected by transmission electron microscopy, as described in U.S. Pat. No. 5,504,074 which is hereby incorporated by reference in its entirety.

The test system of assay [5] is T1, tubulin. Briefly: Enhancement of glutamate- or MAP-induced tubulin assembly, turbidimetric curves (FIGS. 4 and 5). It counts as biochemical.
Assay [6] has as its system T1, tubulin. Nature of the assay: Polymer morphology by electron microscopy. It counts as biochemical. From the text: It was possible that compounds 13 and 18 were not actually acting like paclitaxel in enhancing microtubule assembly and in stabilizing the microtubules formed in the course of the turbidity studies shown in FIG. 4, but that these agents were causing formation of polymers of aberrant morphology and temperature stability different from microtubules, such as occurs with vinca alkaloids. Polymer morphology was examined by electron microscopy. […] Even more important, when the reaction mixtures were returned to 0° C. for 15 min, no microtubules were visualized on grids prepared from the reaction mixture without drug.

Assay [7] deals with T1, tubulin. Briefly: Room temperature tubulin assembly assay (favorable reaction conditions, glutamate-dependent). It counts as biochemical. As to conditions: no polymerization in the absence of drug. As to the method:
Previous observations with paclitaxel analogs indicate that differences between compounds are magnified in restrictive reaction conditions and minimized in favorable reaction conditions. […] However, under favorable reaction conditions (room temperature) the quantitative difference between paclitaxel and sarcodictyin A was only 2.5-fold. […] The critical concentration with 10 μM sarcodictyin A under the reaction conditions shown in FIG. 6B is 1.0 mg/ml in the GTP-only system.

The test system of assay [8] is T1, tubulin. Nature of the assay: Tubulin polymerization inhibition in vitro (turbidity at 350 nm). On the set-up: key: *: Accelerates tubulin polymerization. As to conditions: no IC50 derivable. Format: biochemical.
The subject of assay [9] is tubulin polymer. Nature of the assay: Inhibition of [3H]paclitaxel binding to tubulin polymer.
The subject of assay [10] is T1, tubulin. Briefly: Enhancement of glutamate- or MAP-induced tubulin assembly, turbidimetric curves (FIGS. 4 and 5). Format: biochemical. As to the method:
In those cases where acceleration of tubulin polymerization is observed, an IC50 value for inhibition of polymerization is of course not derivable. Results for such compounds may be presented in the form of turbidimetric curves, e.g. as presented in FIGS. 4 and 5 for representative compounds 13 and 18.
FIG. 4: Each reaction mixture contained 0.8 M glutamate (pH 6.6), 0.4 mM GTP, 12 μM (1.2 mg/ml) tubulin, 4% (v/v) dimethyl sulfoxide, and compound 13 or 18 as indicated. Baselines were established at 0°, and at time zero the temperature controller was set at 26°. At the time indicated by the dashed line, the temperature controller was set at 0°. A. Curve 1, no drug; curve 2, 2 μM compound 13; curve 3, 5 μM 7; curve 4, 10 μM 7; curve 5, 40 μM 7; curve 6, 40 μM 14. B. Curve 1, no drug; curve 2, 2 μM compound 18; curve 3, 5 μM 18; curve 4, 10 μM 18; curve 5, 40 μM 18.
FIG. 5: Each reaction mixture contained 0.1 M Mes (pH 6.9 with NaOH in 0.5 M stock solution), 0.1 mM GTP, 10 μM (1.0 mg/ml) tubulin, 0.75 mg/ml heat-treated MAPs, 4% dimethyl sulfoxide, and drug as indicated. […] There was no change in turbidity in any reaction mixture. At this point the temperature controller was set at 10°, and subsequent temperature changes, as indicated, were made at the times indicated by the vertical dashed lines. Curve 1, no drug; curve 2, 10 μM paclitaxel; curve 3, 10 μM compound 13; curve 4, 20 μM 7; curve 5, 40 μM 7; curve 6, 10 μM compound 18.
The source holds these as a separate data set.

The subject of assay [11] is chick embryo chorioallantoic membrane. Briefly: Chick embryo chorioallantoic membrane (CAM) assay. It counts as in vivo. As to conditions: 100 mg disk, after 48 hours. As for the experimental part: Anti-angiogenic activity is evaluated in vivo by testing the ability of a compound to inhibit the proliferation of new blood vessel cells (angiogenesis). A suitable assay is the chick embryo chorioallantoic membrane (CAM) assay described by Crum et al., Science 230:1375 (1985). See also, U.S. Pat. No. 5,001,116, which is hereby incorporated by reference in its entirety. Briefly, fertilized chick embryos are removed from their shell on day 3 or 4, and a methylcellulose disc containing the drug is implanted on the chorioallantoic membrane. The embryos are examined 48 hours later and, if a clear avascular zone appears around the disc, the diameter of that zone is measured.

Where [12] appears, read: GTP-only system, critical concentrations.

`COC(=O)/C1=C/[C@@H]2[C@@H](C(C)C)CC=C(C)[C@@H]2C[C@H](OC(=O)/C=C/c2cn(C)cn2)[C@]2(C)C=C[C@@]1(O)O2` [sarcodictyin A]: the “Quantitative difference between paclitaxel and sarcodictyin A” value in assay [1] is 2.5 fold. Moreover, the “Critical concentration of tubulin, GTP-dependent, MAP-independent assembly” value in assay [2] (30° C., 10 μM drug) stood at 1.0 mg/mL. Moreover, in assay [2] (setting [12]), the “Activity relative to compound 13 (% more active)” value is given as 40% and the “Activity relative to paclitaxel (fold less active)” value is listed as “about 5 fold”. In assay [3], the “Inhibition of paclitaxel binding to tubulin polymer” value is listed as “only weakly inhibits”.

As for `CCOc1cc2c(cc1OC(C)=O)C(=O)CC[C@@H]1[C@@H]2CC[C@]2(C)[C@@H](OC(C)=O)CC[C@@H]12` [Compound 13, B-Homo-3,17β-diacetoxy-2-ethoxyestra-1,3,5(10)-triene-6-one], the “Assembly of microtubules without MAPs” value in assay [2] (10 μM 13, 40 μM tubulin) was “assembly of microtubules was observed without MAPs”. The “Critical concentration of tubulin, MAP- and GTP-dependent assembly” value in assay [2] (30° C., 10 μM drug, MAPs:tubulin 1:3 by weight) is 0.50 mg/mL. In assay [2] (30° C., 10 μM drug), the “Critical concentration of tubulin, GTP-dependent, MAP-independent assembly” value was determined as 1.4 mg/mL. For the same compound, the “Effect on tubulin polymerization / microtubule assembly” value in [4] is recorded as “stimulate microtubule assembly”. Besides, the “Tubulin assembly in the absence of GTP” value in assay [5] was “has not been observed; also recorded: not without GTP”. Besides, the “Assembly reaction when either MAPs or GTP was omitted” value in assay [5] (10 μM tubulin, 40 μM compound 13 or 10 μM paclitaxel) is recorded as “no reaction occurred”. In assay [6], the “Microtubules formed, seen by electron microscopy” value is listed as “abundant microtubules were formed that were indistinguishable from those formed in the absence of drug”. Moreover, the “Cold stable microtubules after return to 0° C. for 15 min” value in assay [6] (40 μM 13 or 10 μM paclitaxel) is given as “abundant cold stable microtubules were observed”. Further, the “Activity in room temperature assay” value in assay [7] was “inactive”. In [8], the “Tubulin polymerization inhibition, symbol instead of IC50” value is listed as “*”. Further, in [9], the “Inhibition of [3H]paclitaxel binding to tubulin polymer” value is reported as “only minimally inhibits” and the “Maximal inhibition of [3H]paclitaxel binding to tubulin polymer” value is “about 20%”. In [10], the “Effect on glutamate- and MAP-induced tubulin assembly” value is recorded as “paclitaxel-like properties”. Also, in assay [10] (0.75 mg/ml MAPs, 1.0 mg/ml tubulin, 25° C.), the “Effect on MAP-induced tubulin assembly” value was “enhanced tubulin assembly; also recorded: significantly less than that of paclitaxel”.

`COc1cc2c(cc1O)CC[C@@H]1[C@@H]2CC[C@]2(C)[C@@H](O)CC[C@@H]12` [2-methoxyestradiol]: the “Inhibition of cell mitosis and growth of new blood vessels” value in assay [11] is “inhibit cell mitosis and the growth of new blood vessels”.
